Assay results reported in patent US20030216257A1, “1-aryl-4-alkyl halide-2(1h)-pyridones and their use as herbicides” (priority 2000, published 2003).

Legend:
Experiment in all cases: Greenhouse experiments, herbicidal action (pre-/post-emergence treatment)
Assay type in all cases: in vivo
Conditions in all cases: post-emergence rate 0.0313 and 0.0156 kg of a.S./ha, scale 0 to 100
ABUTH (velvet leaf) = test system: ABUTH (velvet leaf)
Excerpt: (§1) The culture containers used were plastic pots with loamy sand containing approximately 3.0% of humus as the substrate. The seeds of the test plants were sown separately for each species.
(§2) For the pre-emergence treatment, the active compounds, which had been suspended or emulsified in water, were applied directly after seeding by means of finely distributing nozzles. The containers were irrigated gently to promote germination and growth and subsequently covered with transparent plastic hoods until the plants had taken root. This cover causes uniform germination of the test plants unless this was not adversely affected by the active compounds.
(§3) For the post-emergence treatment, the test plants were initially grown to a height of 3 to 15 cm, depending on the habit, and then treated with the active compounds which had been suspended or emulsified in water. To this end, the test plants were either sown directly and cultivated in the same containers, or they were initially cultivated separately as seedlings and transplanted into the test containers a few days prior to the treatment. The application rate for the post-emergence treatment was 0.0313 and 0.0156 kg of a. S./ha.
(§4) The plants were kept at temperatures of 10-25° C. and 20-35° C., depending on the species. The test period extended over 2 to 4 weeks. During this time, the plants were tended, and their reaction to the individual treatments was evaluated.
(§5) Evaluation was carried out using a scale from 0 to 100. 100 means no emergence of the plants, or complete destruction of at least the above-ground parts, and 0 means no damage or normal course of growth.
(§6) The plants used in the greenhouse experiments were of the following species: […]

AMARE (redroot pigweed) = test system: AMARE (redroot pigweed)
Excerpt: as §1, §2, §3, §4, §5, §6

COMBE (dayflower) = test system: COMBE (dayflower)
Excerpt: as §1, §2, §3, §4, §5, §6

[1] = test system: GALAP (catchweed bedstraw)
Excerpt: as §1, §2, §3, §4, §5, §6

SETFA (giant foxtail) = test system: SETFA (giant foxtail)
Excerpt: as §1, §2, §3, §4, §5, §6

Measured: herbicidal activity against harmful plant

CC(C)OC(=O)c1cc(-n2c(Cl)cc(C(F)(F)F)cc2=O)c(F)cc1Cl [Example 1, Isopropyl 2-Chloro-5-[2-chloro-6-oxo-4-(trifluoromethyl)-1-(6H)-pyridinyl]-4-fluorobenzoate]
very good activity: all assays above
